≈ marks a conversion by molar mass, not a printed value. Where two headings read alike, the source gives them in different places.
Columns and labels:
[1] = test system: M. tuberculosis (RCMB 010126); experiment: Microplate alamar blue assay; assay type: cell-based, Mycobacterium tuberculosis; details: Mycobacterium tuberculosis, RCMB010126, sensitive Mycobacterium tuberculosis (RCMB 010126), MABA
B. subtilis (ATCC 9372) = experiment: Broth microdilution assay, MIC; assay type: cell-based; details: Bacillus subtilis, ATCC9372, read-out: Minimum Inhibitory Concentration
E. coli (ATCC25922) = experiment: Broth microdilution assay, MIC; assay type: cell-based; details: Escherichia coli, ATCC25922, read-out: Minimum Inhibitory Concentration
S. aureus (ATCC 25923) = experiment: Broth microdilution assay, MIC; assay type: cell-based; details: Staphylococcus aureus, ATCC25923, read-out: Minimum Inhibitory Concentration
C. albicans (ATCC 10231) = experiment: Broth microdilution assay, antifungal MIC/MFC; assay type: cell-based, Candida albicans; details: for ratio (MFC/MIC): C. albicans (ATCC 10231); for MFC / MIC: Candida albicans; for fungicidal or fungistatic behavior: C. albicans, MFC/MIC > 4 = fungistatic
[2] = test system: P. aeruginosa (ATCC 29853); experiment: Broth microdilution assay, MIC/MBC; assay type: cell-based; details: for ratio (MBC/MIC): P. aeruginosa (ATCC 29853); for fold more efficient than amoxicillin / bactericidal or bacteriostatic effect: P. aeruginosa; for fold more efficient than amoxicillin: from MICs; for MBC / MIC: Pseudomonas aeruginosa; for bactericidal or bacteriostatic effect: MBC/MIC ≤ 4 = bactericidal
[3] = ATCC10231, read-out: Minimum Inhibitory Concentration
[4] = ATCC29853, read-out: Minimum Inhibitory Concentration

SMILES	MIC [1]	MIC (B. subtilis (ATCC 9372))	MIC (E. coli (ATCC25922))	MIC (S. aureus (ATCC 25923))	ratio (MFC/MIC) (C. albicans (ATCC 10231))	MFC (C. albicans (ATCC 10231); ATCC10231)	MIC (C. albicans (ATCC 10231); ATCC10231)	MIC (C. albicans (ATCC 10231); [3])	ratio (MBC/MIC) [2]	fold more efficient than amoxicillin [2]	MBC ([2]; ATCC29853)	MIC ([2]; ATCC29853)	MIC [2, 4]	bactericidal or bacteriostatic effect [2]	fungicidal or fungistatic behavior (C. albicans (ATCC 10231))
COc1ccc(OC)c(C=C2SC(N3N=C(c4cccs4)CC3c3cccs3)=NC2=O)c1 (stereo not drawn) [8c, 5-(2,5-Dimethoxybenzylidene)-2-(4,5-dihydro-3,5-di(thiophen-2-yl)pyrazol-1-yl)thiazol-4(5H)-one]	7.81 µg/mL (≈ 16.2 µM)	125 µg/mL (≈ 260 µM)	125 µg/mL (≈ 260 µM)	62.5 µg/mL (≈ 130 µM)	2	62.2 µg/mL (≈ 129 µM)	31.2 µg/mL (≈ 64.9 µM)	31.2 µg/mL (≈ 64.9 µM)	8	~16 fold	250 µg/mL (≈ 519 µM)	31.2 µg/mL (≈ 64.9 µM)	31.2 µg/mL (≈ 64.9 µM)	–	–
c1ccc(-c2csc(N3N=C(c4cccs4)CC3c3cccs3)n2)cc1 (stereo not drawn) [4a, 4,5-Dihydro-1-(4-phenylthiazol-2-yl)-3,5-di(thiophen-2-yl)-1H-pyrazole]	62.5 µg/mL (≈ 159 µM)	15.6 µg/mL (≈ 39.7 µM)	125 µg/mL (≈ 318 µM)	250 µg/mL (≈ 635 µM)	4	500 µg/mL (≈ 1270 µM)	125 µg/mL (≈ 318 µM)	125 µg/mL (≈ 318 µM)	4	–	500 µg/mL (≈ 1270 µM)	125 µg/mL (≈ 318 µM)	125 µg/mL (≈ 318 µM)	bactericidal	–
O=C1CCSC(N2N=C(c3cccs3)CC2c2cccs2)=N1 (stereo not drawn) [10a, 5,6-Dihydro-2-(4,5-dihydro-3,5-di(thiophen-2-yl)pyrazol-1-yl)-1,3-thiazin-4-one]	31.2 µg/mL (≈ 89.9 µM)	62.5 µg/mL (≈ 180 µM)	125 µg/mL (≈ 360 µM)	125 µg/mL (≈ 360 µM)	4	250 µg/mL (≈ 719 µM)	62.5 µg/mL (≈ 180 µM)	62.5 µg/mL (≈ 180 µM)	4	~16 fold	125 µg/mL (≈ 360 µM)	31.2 µg/mL (≈ 89.9 µM)	31.2 µg/mL (≈ 89.9 µM)	bactericidal	–
O=C1N=C(N2N=C(c3cccs3)CC2c2cccs2)SC1=C1C(=O)Nc2ccccc21 (stereo not drawn) [9a, 3-(2-(4,5-Dihydro-3,5-di(thiophen-2-yl)pyrazol-1-yl)-4-oxothiazol-5(4H)-ylidene)indolin-2-one]	15.6 µg/mL (≈ 33.7 µM)	125 µg/mL (≈ 270 µM)	125 µg/mL (≈ 270 µM)	62.5 µg/mL (≈ 135 µM)	2	250 µg/mL (≈ 540 µM)	125 µg/mL (≈ 270 µM)	125 µg/mL (≈ 270 µM)	2	~16 fold	62.2 µg/mL (≈ 135 µM)	31.2 µg/mL (≈ 67.6 µM)	31.2 µg/mL (≈ 67.6 µM)	bactericidal	–
NNC(=O)c1ccncc1 [isoniazid, reference compound]	0.12 µg/mL (≈ 0.875 µM)	–	–	–	–	–	–	–	–	–	–	–	–	–	–
COc1ccc(OC)c(C2CC(c3cccs3)=NN2C2=NC(=O)C(C)S2)c1 (stereo not drawn) [7b, 2-(4,5-Dihydro-5-(2,5-dimethoxyphenyl)-3-(thiophen-2-yl)pyrazol-1-yl)-5-methylthiazol-4(5H)-one]	62.5 µg/mL (≈ 156 µM)	125 µg/mL (≈ 311 µM)	125 µg/mL (≈ 311 µM)	250 µg/mL (≈ 623 µM)	8	500 µg/mL (≈ 1250 µM)	62.5 µg/mL (≈ 156 µM)	62.5 µg/mL (≈ 156 µM)	2	–	250 µg/mL (≈ 623 µM)	125 µg/mL (≈ 311 µM)	125 µg/mL (≈ 311 µM)	bactericidal	fungistatic
CCOC(=O)c1sc(N2N=C(c3cccs3)CC2c2cccs2)nc1C (stereo not drawn) [5a, Ethyl 2-(4,5-dihydro-3,5-di(thiophen-2-yl)pyrazol-1-yl)-4-methylthiazole-5-carboxylate]	31.2 µg/mL (≈ 77.4 µM)	3.9 µg/mL (≈ 9.66 µM)	> 500 µg/mL	62.5 µg/mL (≈ 155 µM)	4	500 µg/mL (≈ 1240 µM)	125 µg/mL (≈ 310 µM)	125 µg/mL (≈ 310 µM)	>1	–	> 500 µg/mL	> 500 µg/mL	> 500 µg/mL	–	–
Cc1csc(N2N=C(c3cccs3)CC2c2cccs2)n1 (stereo not drawn) [3a, 4,5-Dihydro-1-(4-methylthiazol-2-yl)-3,5-di(thiophen-2-yl)-1H-pyrazole]	62.5 µg/mL (≈ 189 µM)	62.5 µg/mL (≈ 189 µM)	500 µg/mL (≈ 1510 µM)	250 µg/mL (≈ 754 µM)	>4	> 500 µg/mL	125 µg/mL (≈ 377 µM)	125 µg/mL (≈ 377 µM)	>1	–	> 500 µg/mL	> 500 µg/mL	> 500 µg/mL	–	fungistatic
CCOC(=O)c1sc(N2N=C(c3cccs3)CC2c2cc(OC)ccc2OC)nc1C (stereo not drawn) [5b, Ethyl 2-(4,5-dihydro-5-(2,5-dimethoxyphenyl)-3-(thiophen-2-yl)pyrazol-1-yl)-4-methylthiazole-5-carboxylate]	31.2 µg/mL (≈ 68.3 µM)	125 µg/mL (≈ 273 µM)	125 µg/mL (≈ 273 µM)	62.5 µg/mL (≈ 137 µM)	2	125 µg/mL (≈ 273 µM)	62.5 µg/mL (≈ 137 µM)	62.5 µg/mL (≈ 137 µM)	2	~16 fold	62.2 µg/mL (≈ 136 µM)	31.2 µg/mL (≈ 68.3 µM)	31.2 µg/mL (≈ 68.3 µM)	bactericidal	–

Source: paper PMC10600881 (ACS Omega, 2023)
